One may read the Ki as a dissociation constant, usually derived from enzyme kinetics or from competition with a known ligand. The term IC50 denotes the concentration at which inhibition is half-maximal.

Read-outs that look alike come from different tables or passages of the source.

Consider 24 compounds from patent publication US20040097594A1 (priority 1998, published 2004).

One test deals with HIV-1 protease (Human immunodeficiency virus type 1 group M subtype B, UniProt P04585). Briefly: biochemical.
A further test deals with HIV-1 (strain IIIB). Description: microbe, parasite or virus in culture. It is filed as cell-based. The conditions noted are these: lower line of each compound's entry, read-out: IC50 (MT-4 cells).
The mark [1] stands for this setting: HIV-1 protease, upper line of each compound's entry, read-out: Ki (enzyme).
Setting [2] is: Human immunodeficiency virus 1, 120 h, MT4 cells infected with HIV-1 strain IIIB, 5 days.
The mark [3] stands for this setting: Human immunodeficiency virus 1, IIIB, MT4, 120 h, […].

On to `NC(=O)C[C@H](NC(=O)c1ccc2ccccc2n1)C(=O)N[C@@H](Cc1ccccc1)[C@H](O)CN(OC1CCCC1)S(=O)(=O)c1ccc2cn[nH]c2c1` [Compound 52], for which the Ki at HIV-1 protease (setting [1]) was below 0.001 µM. In addition, the IC50 in the test on HIV-1 (strain IIIB) (setting [2]) was at most 0.1 µM.

Regarding `COC(=O)Nc1nc2cc(S(=O)(=O)N(C[C@@H](O)[C@H](Cc3ccccc3)NC(=O)O[C@H]3CCOC3)OC3CCCC3)ccc2[nH]1` [Compound 53, (3S)Tetrahydro-3-furanyl N-(1S,2R)-1-benzyl-3-[(cyclopentyloxy)(2-[(methoxycarbonyl)amino]-1H-benzimidazol-5-ylsulfonyl)amino]-2-hydroxypropylcarbamate], the Ki at HIV-1 protease (setting [1]) is below 0.001 µM. For the same compound, the IC50 in the test on HIV-1 (strain IIIB) (setting [2]) is at most 0.1 µM.

Regarding `COC(=O)Nc1nc2cc(S(=O)(=O)N(C[C@@H](O)[C@H](Cc3ccccc3)NC(=O)OC3COCOC3)OC3CCCC3)ccc2[nH]1` [Compound 55, 1,3-Dioxan-5-yl N-(1S,2R)-1-benzyl-3-[(cyclopentyloxy)(2-{(methoxycarbonyl)amino]-1H-benzimidazol-5-ylsulfonyl)amino]-2-hydroxypropylcarbamate], the Ki on HIV-1 protease (setting [1]) was below 0.001 µM. Further, in the test with HIV-1 (strain IIIB) (setting [2]), the IC50 is at most 0.1 µM.

Take `O=C(N[C@@H](Cc1ccccc1)[C@H](O)CN(OC1CCCC1)S(=O)(=O)c1ccc2[nH]ncc2c1)O[C@H]1CCOC1` [Compound 56, (3S)Tetrahydro-3-furanyl N-(1S,2R)-1-benzyl-3-[(cyclopentyloxy)(1H-indazol-5-ylsulfonyl)amino]-2-hydroxypropylcarbamate]: the Ki at HIV-1 protease (setting [1]) was below 0.001 µM. In the test with HIV-1 (strain IIIB) (setting [2]), the IC50 is 0.1 to 0.5 µM.

On to `O=C(N[C@@H](Cc1ccccc1)[C@H](O)CN(OC1CCCC1)S(=O)(=O)c1ccc2[nH]ncc2c1)OC1CO[C@H]2OCC[C@@H]12` (stereo partly drawn) [Compound 57, (3aS,6aR)Hexahydrofuro[2,3-b]furan-3-yl N-(1S,2R)-1-benzyl-3-[(cyclopentyloxy)(1H-indazol-5-ylsulfonyl)amino]-2-hydroxypropylcarbamate], for which the Ki at HIV-1 protease (setting [1]) is below 0.001 µM. Moreover, the IC50 with HIV-1 (strain IIIB) (setting [2]) was at most 0.1 µM.

Take `O=C(N[C@@H](Cc1ccccc1)[C@H](O)CN(OC1CCCC1)S(=O)(=O)c1ccc2cn[nH]c2c1)O[C@H]1CCOC1` [Compound 58, (3S)Tetrahydro-3-furanyl N-(1S,2R)-1-benzyl-3-[(cyclopentyloxy)(1H-indazol-6-ylsulfonyl)amino]-2-hydroxypropylcarbamate]: the Ki at HIV-1 protease (setting [1]) was below 0.001 µM. Moreover, in the test with HIV-1 (strain IIIB) (setting [2]), the IC50 lay within 0.1 to 0.5 µM.

On to `O=C(N[C@@H](Cc1ccccc1)[C@H](O)CN(OC1CCCC1)S(=O)(=O)c1ccc2cn[nH]c2c1)OC1CO[C@H]2OCC[C@@H]12` (stereo partly drawn) [Compound 59, (3aS,6aR)Hexahydro[2,3-b]furan-3-yl N-(1S,2R)-1-benzyl-3-[(cyclopentyloxy)(1H-indazol-6-ylsulfonyl)amino]-2-hydroxypropylcarbamate], for which the Ki at HIV-1 protease (setting [1]) was below 0.001 µM. The IC50 in the test with HIV-1 (strain IIIB) (setting [2]) was at most 0.1 µM.

Regarding `O=C(N[C@@H](Cc1ccccc1)[C@H](O)CN(OC1CCCC1)S(=O)(=O)c1ccc2cn[nH]c2c1)OC1COCOC1` [Compound 60, 1,3-Dioxan-5-yl N-(1S,2R)-1-benzyl-3-[(cyclopentyloxy)(1H-indazol-6-ylsulfonyl)amino]-2-hydroxypropylcarbamate], the inhibition constant Ki on HIV-1 protease (setting [1]) is below 0.001 µM. Further, the IC50 in the test with HIV-1 (strain IIIB) (setting [2]) lay in the range of 0.1 to 0.5 µM.

As to `CC(C)ON(C[C@@H](O)[C@H](Cc1ccccc1)NC(=O)O[C@H]1CCOC1)S(=O)(=O)c1cccc(N)c1` [Compound 61, (3S)tetrahydro-3-furanyl N-(1S,2R)-3-[[(3-aminophenyl)sulfonyl](isopropoxy)amino]-1-benzyl-2-hydroxypropylcarbamate], the Ki on HIV-1 protease (setting [1]) was 0.001 to 0.01 µM. In addition, the IC50 in the test with HIV-1 (strain IIIB) (setting [2]) was 0.5 to 1 µM.

Regarding `CC(C)ON(C[C@@H](O)[C@H](Cc1ccccc1)NC(=O)O[C@H]1CCOC1)S(=O)(=O)c1ccc2[nH]c(=O)[nH]c2c1` [Compound 62, (3S)tetrahydro-3-furanyl N-((1S,2R)-1-benzyl-2-hydroxy-3-isopropoxy[(2-oxo-2,3-dihydro-1H-1,3-benzimidazol-5-yl)sulfonyl]aminopropyl)carbamate], the Ki on HIV-1 protease (setting [1]) was in the range of 0.001 to 0.01 µM. Besides, in the test on HIV-1 (strain IIIB) (setting [2]), the IC50 was above 1 µM.

For `COc1ccc(S(=O)(=O)N(C[C@@H](O)[C@H](Cc2ccccc2)NC(=O)O[C@H]2CCOC2)OC2CCCCC2)cc1` [Compound 64, (3S)tetrahydro-3-furanyl N-((1S,2R)-1-benzyl-3-(cyclohexyloxy)[(4-methoxyphenyl)sulfonyl]amino-2-hydroxypropyl)carbamate], at HIV-1 protease, the Ki was below 0.001 µM. Further, in the test on HIV-1 (strain IIIB) (setting [2]), the half-inhibitory concentration (IC50) is above 1 µM.

On HIV-1 protease, `COc1ccc(S(=O)(=O)N(C[C@@H](O)[C@H](Cc2ccccc2)NC(=O)[C@H](CC(N)=O)NC(=O)c2ccc3ccccc3n2)OC2CCCCC2)cc1` [Compound 66] had a Ki below 0.001 µM. Besides, the IC50 with HIV-1 (strain IIIB) (setting [3]) is at most 0.1 µM.

In the case of `CCC(C)ON(C[C@@H](O)[C@H](Cc1ccccc1)NC(=O)OC1CCOC1)S(=O)(=O)c1ccc(OC)cc1` (stereo partly drawn) [Compound 67, (3S)tetrahydro-3-furanyl N-((1S,2R)-1-benzyl-3-sec-butoxy[(4-methoxyphenyl)sulf-onyl]amino-2-hydroxypropyl)carbamate], the Ki at HIV-1 protease (setting [1]) was below 0.001 µM. For the same compound, the IC50 with HIV-1 (strain IIIB) (setting [2]) lay within 0.1 to 0.5 µM.

As for `CCC(C)ON(C[C@@H](O)[C@H](Cc1ccccc1)NC(=O)OC1CO[C@H]2OCC[C@@H]12)S(=O)(=O)c1ccc(OC)cc1` (stereo partly drawn) [Compound 68, (3R,3aS,6aR)hexahydrofuro[2,3-b]furan-3-yl N-((1S,2R)-1-benzyl-3-sec-butoxy[(4-methoxyphenyl)sulfonyl]amino-2-hydroxypropyl)carbamate], the Ki at HIV-1 protease (setting [1]) is below 0.001 µM. For the same compound, the IC50 with HIV-1 (strain IIIB) (setting [2]) was at most 0.1 µM.

With `CCC(C)ON(C[C@@H](O)[C@H](Cc1ccccc1)NC(=O)OC1COCOC1)S(=O)(=O)c1ccc(OC)cc1` (stereo partly drawn) [Compound 69, 1,3-dioxan-5-yl N-((1S,2R)-1-benzyl-3-sec-butoxy[(4-methoxyphenyl)sulfonyl]amino-2-hydroxypropyl)carbamate], the Ki on HIV-1 protease (setting [1]) was below 0.001 µM. Besides, the IC50 in the test on HIV-1 (strain IIIB) (setting [2]) is 0.1 to 0.5 µM.

Take `CCC(C)ON(C[C@@H](O)[C@H](Cc1ccccc1)NC(=O)c1cccc(O)c1C)S(=O)(=O)c1ccc(OC)cc1` (stereo partly drawn) [Compound 70]: the Ki on HIV-1 protease (setting [1]) was below 0.001 µM. For the same compound, the IC50 in the test on HIV-1 (strain IIIB) (setting [2]) is above 0.5 µM.

Turning to `CCC(C)ON(C[C@@H](O)[C@H](Cc1ccccc1)NC(=O)[C@H](CC(N)=O)NC(=O)c1ccc2ccccc2n1)S(=O)(=O)c1ccc(OC)cc1` (stereo partly drawn) [Compound 71], the Ki on HIV-1 protease (setting [1]) is below 0.001 µM. The IC50 in the test with HIV-1 (strain IIIB) (setting [3]) was at most 0.1 µM.

With `COc1ccc(S(=O)(=O)N(C[C@@H](O)[C@H](Cc2ccccc2)NC(=O)O[C@H]2CCOC2)OC2CCOCC2)cc1` [Compound 72, (3S)tetrahydro-3-furanyl N-(1S,2R)-1-benzyl-2-hydroxy-3-[[(4-methoxyphenyl)sulfonyl](tetrahydro-2H-pyran-4-yloxy)amino]propylcarbamate], the Ki on HIV-1 protease (setting [1]) is 0.001 to 0.01 µM. Also, in the test with HIV-1 (strain IIIB) (setting [2]), the IC50 was 0.5 to 1 µM.

For `COc1ccc(S(=O)(=O)N(C[C@@H](O)[C@H](Cc2ccccc2)NC(=O)OC2CO[C@H]3OCC[C@@H]23)OC2CCOCC2)cc1` (stereo partly drawn) [Compound 73, (3R,3aS,6aR)hexahydrofuro[2,3-b]furan-3-yl N-(1S,2R)-1-benzyl-2-hydroxy-3-[[(4-methoxyphenyl)sulfonyl](tetrahydro-2H -pyran-4-yloxy)amino]propylcarbamate], the Ki on HIV-1 protease (setting [1]) is below 0.001 µM. The IC50 with HIV-1 (strain IIIB) (setting [2]) is at most 0.1 µM.

Take `COc1ccc(S(=O)(=O)N(C[C@@H](O)[C@H](Cc2ccccc2)NC(=O)OC2COCOC2)OC2CCOCC2)cc1` [Compound 74, 1,3-dioxan-5-yl N-(1S,2R)-1-benzyl-2-hydroxy-3-[[(4-methoxyphenyl)sulfonyl](tetrahydro-2H-pyran-4-yloxy)amino]propylcarbamate]: the Ki on HIV-1 protease (setting [1]) was below 0.001 µM. Further, the IC50 with HIV-1 (strain IIIB) (setting [2]) is at most 0.1 µM.

Regarding `COc1ccc(S(=O)(=O)N(C[C@@H](O)[C@H](Cc2ccccc2)NC(=O)c2cccc(O)c2C)OC2CCOCC2)cc1` [Compound 75, N-(1S,2R)-1-benzyl-2-hydroxy-3-[[(4-methoxyphenyl)sulfonyl](tetrahydro-2H-pyran-4-yloxy)amino]propyl-3-hydroxy-2-methylbenzamide], on HIV-1 protease (setting [1]), the Ki was below 0.001 µM. For the same compound, the IC50 in the test with HIV-1 (strain IIIB) (setting [2]) is above 0.5 µM.

On to `COc1ccc(S(=O)(=O)N(C[C@@H](O)[C@H](Cc2ccccc2)NC(=O)[C@H](CC(N)=O)NC(=O)c2ccc3ccccc3n2)OC2CCOCC2)cc1` [Compound 76, (2S)-N-(1S,2R)-1-benzyl-2-hydroxy-3-[[(4-methoxyphenyl)sulfonyl](tetrahydro-2H-pyran-4-yloxy)amino]propyl-2-[(2-quinolinylcarbonyl)amino]butanediamide], for which, at HIV-1 protease (setting [1]), the Ki is below 0.001 µM. Also, the IC50 with HIV-1 (strain IIIB) (setting [3]) lay in the range of 0.1 to 0.5 µM.

For `NCCNc1cccc(S(=O)(=O)N(CC(O)C(Cc2ccccc2)NC(=O)OC2COC3OCCC23)OC2CCCC2)c1` [Compound 83, (3R,3aS,6aR)hexahydrofuro[2,3-b]furan-3-yl N-(1S,2R)-3-[(3[(2-aminoethyl)amino]phenylsulfonyl)(cyclopentyloxy)amino]-1-benzyl-2-hydroxypropylcarbamate and (3S,3aR,6aS)hexahydrofuro[2,3-b]furan-3-yl N-(1S,2R)-3-[(3[(2-aminoethyl)amino]phenylsulfonyl)(cyclopentyloxy)amino]-1-benzyl-2-hydroxypropylcarbamate], on HIV-1 protease (setting [1]), the Ki is below 0.001 µM. Besides, in the test with HIV-1 (strain IIIB) (setting [2]), the IC50 lay within 0.1 to 0.5 µM.

For the compound `N#CCNc1cccc(S(=O)(=O)N(CC(O)C(Cc2ccccc2)NC(=O)OC2COC3OCCC23)OC2CCCC2)c1` [Compound 86, (3R,3aS,6aR)hexahydrofuro[2,3-b]furan-3-yl N-(1S,2R)-1-benzyl-3-[(3-[(cyanomethyl)amino]phenylsulfonyl)(cyclopentyloxy)amino]-2-hydroxypropylcarbamate and (3S,3aR,6aS)hexahydrofuro[2,3-b]furan-3-yl N-(1S,2R)-1-benzyl-3-[(3-[(cyanomethyl)amino]phenylsulfonyl)(cyclopentyloxy)amino]-2-hydroxypropylcarbamate], the Ki at HIV-1 protease (setting [1]) was below 0.001 µM. Moreover, the IC50 in the test on HIV-1 (strain IIIB) (setting [2]) was at most 0.1 µM.
